Measurements reported in US20160115540A1, “PRODRUGS AND DRUGS” (Biogen MA Inc., priority 2013, published 2016).
Where a name gives a salt, the structure may show the parent alone.

Test system: spleen
Experiment: Transcriptional profiling on Affymetrix GeneChips, single dose, naïve mice: spleen
Assay type: in vivo, C57BL/6 mice
Settings: for Number of differentially expressed genes identified: Spleen: Naïve, Single Dose; for FC Pdia4 (protein disulfide isomerase associated 4): probe 1416497_PM_at; for FC Aox1 (aldehyde oxidase 1): probe 1419435_PM_at; for FC Osgin1 (oxidative stress induced growth inhibitor 1): probe 1424022_PM_at; for FC Kirrel (kin of IRRE like (Drosophila)): probe 1434797_PM_at; for FC 9130221J17Rik (RIKEN cDNA 9130221J17 gene): probe 1443159_PM_at; for Number of genes, DMF Only / MMF Only: Spleen
Description: Treated mice were sacrificed at 2, 7, or 12 hours. Tissues (liver, spleen, kidney, jejunum, cortex, hippocampus, striatum and whole blood) were collected and analyzed by transcriptional profiling on mouse Affymetrix GeneChips.
Tissues (liver, spleen, kidney, jejunum, cortex, hippocampus, striatum and whole blood) were collected and analyzed by transcriptional profiling on mouse Affymetrix GeneChips.
Animals were exposed to CO2 and whole blood collected via cardiac puncture. Two 100 μl aliquots of whole blood were collected in 1.5 mL microcentrifuge tubes and snap frozen in liquid nitrogen. Peripheral (liver, spleen, kidney and jejunum) and CNS brain (cerebellum, hippocampus, striatum and cortex) tissues were harvested and snap frozen in liquid nitrogen, with special care taken to collect tissues of similar size and from the same location. All samples were stored at −80° C. until RNA extraction was conducted.
For RNA preparation, frozen tissues were placed in 2 mL RNAse-free 96-well blocks with 1.5 mL QIAzol Lysis Reagent (QIAgen) and a 3.2 mm stainless steel bead (BioSpec Products, Bartlesville, Okla.). Tissues were disrupted for four cycles of 45 seconds in a Mini-Beadbeater (Biospec Products). RNA was extracted in chloroform and the aqueous phase was mixed with an equal volume of 70% ethanol. Extracted RNA was applied to RNeasy 96 plates and purified by the spin method according to the manufacturer's protocol (RNeasy 96 Universal Tissue Protocol, QIAgen, Hilden Germany).
Automated sample amplifications and biotin labelings were carried out using the NuGEN Ovation RNA Amplification system V2 (Cat #3100), Ovation WB reagent (Cat #1300) and Encore Biotin module (Cat #4200) (NuGEN Technologies, Inc, San Carlos, Calif.) according to manufacturer's recommendations using an Arrayplex automated liquid handler (Beckman Coulter, Indianapolis, Ind.). Two micrograms of biotin labeled sscDNA probe were hybridized to Affymetrix GeneChip Affymetrix HT_MG-430_PM plate arrays with modified conditions as described in Allaire et al. Washing and staining of the hybridized arrays were completed as described in the GeneChip Expression analysis technical manual for HT plate arrays using the Genechip® Array Station (Affymetrix, Santa Clara, Calif.) with modifications as described in Allaire et al. The processed GeneChip® plate arrays were scanned using GeneTitan scanner (Affymetrix, Santa Clara, Calif.).
Affymetrix scans were subject to quality control (QC) measures. These tests included a visual inspection of the distribution of raw signal intensities and an assessment of RNA degradation, relative log expression (RLE), and normalized unsealed standard error (NUSE). All sample scans that passed these QC metrics were included in the analysis.
All CEL files were subjected to GC-content-based Robust Multi-array Average (GCRMA) normalization (version 2.20.0) (Irizarry R A, et al. Nucleic Acids Res 2003; 31:e15; Li C, et al. Genome Biol 2001; 2:[…]0032). Expression levels were log (base 2) transformed.
All calculations and analyses were carried out using R (version 2.11.1) and Bioconductor computational tools (Gentleman R. Springer Science+Business Media 2005).

[1] = 100 mpk, vs Vehicle, 2 h after last dosing
[2] = 100 mpk, vs Vehicle, 7 h after last dosing
[3] = 100 mpk, vs Vehicle, 12 h after last dosing

With `COC(=O)/C=C/C(=O)OC` [DMF, dimethyl fumarate] the “Number of differentially expressed genes identified: Spleen” value (“Number of differentially” for short) (100 mpk DMF-vs-100 mpk MMF, 2 h after last dosing) was 0, the “Number of differentially” value (100 mpk DMF-vs-100 mpk MMF, 7 h after last dosing) was 0 and the “Number of differentially” value (100 mpk DMF-vs-100 mpk MMF, 12 h after last dosing) was 0. The “Number of differentially” value [1] was 13, the “Number of differentially” value [2] was 2 and the “Number of differentially” value [3] was 0. For the same compound, the “genes in differential expression gene list” value (SPLEEN, 100DMF-vs-100MMF, 2 h) was “None”, the “genes in differential expression gene list” value (SPLEEN, 100DMF-vs-100MMF, 7 h) was “None” and the “genes in differential expression gene list” value (SPLEEN, 100DMF-vs-100MMF, 12 h) was “None”. For the same compound, the “FC Pdia4 (protein disulfide isomerase associated 4)” value (SPLEEN, 100DMF-vs-Veh, 2 h) was −1.60, the “FC Aox1 (aldehyde oxidase 1)” value (SPLEEN, 100DMF-vs-Veh, 2 h) was 2.61 and the “FC Srxn1 (sulfiredoxin 1 homolog (S. cerevisiae))” value (SPLEEN, 100DMF-vs-Veh, 2 h, probe 1419942_PM_at) was 2.16. The “FC Txnrd1 (thioredoxin reductase 1)” value (SPLEEN, 100DMF-vs-Veh, 2 h, probe 1421529_PM_a_at) was 1.55, the “FC Osgin1 (oxidative stress induced growth inhibitor 1)” value (SPLEEN, 100DMF-vs-Veh, 2 h) was 1.78 and the “FC Gclc (glutamate-cysteine ligase, catalytic subunit)” value (SPLEEN, 100DMF-vs-Veh, 2 h, probe 1424296_PM_at) was 1.76. The “FC Txnrd1 (thioredoxin reductase 1)” value (SPLEEN, 100DMF-vs-Veh, 2 h, probe 1424486_PM_a_at) was 2.41, the “FC Txnrd1 (thioredoxin reductase 1)” value (SPLEEN, 100DMF-vs-Veh, 2 h, probe 1424487_PM_x_at) was 1.73 and the “FC Srxn1 (sulfiredoxin 1 homolog (S. cerevisiae))” value (SPLEEN, 100DMF-vs-Veh, 2 h, probe 1426875_PM_s_at) was 2.02. For the same compound, the “FC Kirrel (kin of IRRE like (Drosophila))” value (SPLEEN, 100DMF-vs-Veh, 2 h) was −1.54, the “FC 9130221J17Rik (RIKEN cDNA 9130221J17 gene)” value (SPLEEN, 100DMF-vs-Veh, 2 h) was 1.52 and the “FC Mafg (v-maf musculoaponeurotic fibrosarcoma oncogene family, protein G (avian))” value (SPLEEN, 100DMF-vs-Veh, 2 h, probe 1448916_PM_at) was 1.58. The “FC Srxn1 (sulfiredoxin 1 homolog (S. cerevisiae))” value (SPLEEN, 100DMF-vs-Veh, 2 h, probe 1451680_PM_at) was 1.53, the “FC Srxn1 (sulfiredoxin 1 homolog (S. cerevisiae))” value (SPLEEN, 100DMF-vs-Veh, 7 h, probe 1419942_PM_at) was 1.67 and the “FC Srxn1 (sulfiredoxin 1 homolog (S. cerevisiae))” value (SPLEEN, 100DMF-vs-Veh, 7 h, probe 1426875_PM_s_at) was 1.50. The “Number of genes, DMF Only / MMF Only” value was 2, the “Aox1 (probe set 1419435_PM_at) differential expression” value (spleen, 2 hr) was 2.61 and the “Gclc (probe set 1424296_PM_at) differential expression” value (spleen, 2 hr) was 1.76. The “Kirrel (probe set 1434797_PM_at) differential expression” value (spleen, 2 hr) was −1.54, the “Mafg (probe set 1448916_PM_at) differential expression” value (spleen, 2 hr) was 1.58 and the “Osgin1 (probe set 1424022_PM_at) differential expression” value (spleen, 2 hr) was 1.78. For the same compound, the “Pdia4 (probe set 1416497_PM_at) differential expression” value (spleen, 2 hr) was −1.60, the “Srxn1 (probe set 1419942_PM_at) differential expression” value (spleen, 2 hr) was 2.16 and the “Txnrd1 (probe set 1424486_PM_a_at) differential expression” value (spleen, 2 hr) was 2.41. For the same compound, the “Srxn1 (probe set 1419942_PM_at) differential expression” value (spleen, 7 hr) was 1.67 and the “genes in differential expression gene list” value (spleen, 100DMF-vs-Veh, 12 h) was “None”.

With `COC(=O)/C=C/C(=O)O` [MMF, monomethyl fumarate] the “Number of differentially” value [1] was 12, the “Number of differentially” value [2] was 2 and the “Number of differentially” value [3] was 0. The “FC Pdia4 (protein disulfide isomerase associated 4)” value (SPLEEN, 100MMF-vs-Veh, 2 h) was −1.59, the “FC Aox1 (aldehyde oxidase 1)” value (SPLEEN, 100MMF-vs-Veh, 2 h) was 2.35 and the “FC Srxn1 (sulfiredoxin 1 homolog (S. cerevisiae))” value (SPLEEN, 100MMF-vs-Veh, 2 h, probe 1419942_PM_at) was 2.02. For the same compound, the “FC Txnrd1 (thioredoxin reductase 1)” value (SPLEEN, 100MMF-vs-Veh, 2 h, probe 1421529_PM_a_at) was 1.53, the “FC Osgin1 (oxidative stress induced growth inhibitor 1)” value (SPLEEN, 100MMF-vs-Veh, 2 h) was 1.83 and the “FC Txnrd1 (thioredoxin reductase 1)” value (SPLEEN, 100MMF-vs-Veh, 2 h, probe 1424486_PM_a_at) was 2.14. For the same compound, the “FC Srxn1 (sulfiredoxin 1 homolog (S. cerevisiae))” value (SPLEEN, 100MMF-vs-Veh, 2 h, probe 1426875_PM_s_at) was 1.92, the “FC 6330406I15Rik (RIKEN cDNA 6330406I15 gene)” value (SPLEEN, 100MMF-vs-Veh, 2 h, probe 1426937_PM_at) was −1.58 and the “FC Kirrel (kin of IRRE like (Drosophila))” value (SPLEEN, 100MMF-vs-Veh, 2 h) was −1.65. For the same compound, the “FC Armc8 (armadillo repeat containing 8)” value (SPLEEN, 100MMF-vs-Veh, 2 h, probe 1434951_PM_at) was −1.54, the “FC 9130221J17Rik (RIKEN cDNA 9130221J17 gene)” value (SPLEEN, 100MMF-vs-Veh, 2 h) was 1.55 and the “FC probe 1446490_PM_at (no gene named)” value (SPLEEN, 100MMF-vs-Veh, 2 h, probe 1446490_PM_at) was −1.76. The “FC Srxn1 (sulfiredoxin 1 homolog (S. cerevisiae))” value (SPLEEN, 100MMF-vs-Veh, 7 h, probe 1419942_PM_at) was 1.87, the “FC Srxn1 (sulfiredoxin 1 homolog (S. cerevisiae))” value (SPLEEN, 100MMF-vs-Veh, 7 h, probe 1426875_PM_s_at) was 1.69 and the “Number of genes, DMF Only / MMF Only” value was 3. For the same compound, the “Aox1 (probe set 1419435_PM_at) differential expression” value (spleen, 2 hr) was 2.35, the “Armc8 (probe set 1434951_PM_at) differential expression” value (spleen, 2 hr) was −1.54 and the “Kirrel (probe set 1434797_PM_at) differential expression” value (spleen, 2 hr) was −1.65. The “Osgin1 (probe set 1424022_PM_at) differential expression” value (spleen, 2 hr) was 1.83, the “Paip1 (probe set 1425521_PM_at) differential expression” value (spleen, 2 hr) was −1.56 and the “Pdia4 (probe set 1416497_PM_at) differential expression” value (spleen, 2 hr) was −1.59. For the same compound, the “Rod1 (probe set 1424084_PM_at) differential expression” value (spleen, 2 hr) was −1.54, the “Srxn1 (probe set 1419942_PM_at) differential expression” value (spleen, 2 hr) was 2.02 and the “Txnrd1 (probe set 1424486_PM_a_at) differential expression” value (spleen, 2 hr) was 2.14. For the same compound, the “Srxn1 (probe set 1419942_PM_at) differential expression” value (spleen, 7 hr) was 1.87 and the “Srxn1 mRNA fold change vs vehicle” value (spleen, 2 hr after single 100 mg/kg oral dose) was 1.87.
